The source of these data is PMC11249012 (Journal of Medicinal Chemistry, 2024).

One data set has as its system MDA-MB-231 TNBC cells. Nature of the data set: RealTime-Glo cell viability assay, MDA-MB-231 cells. The format is cell-based, human. As to conditions: for pIC50: Homo sapiens, RealTime-Glo, 24 h, read-out: IC50 (cytotoxicity); for cytotoxicity: 100 nM, alone or in combination.
For data set [1], the system named is hyperacetylation of tubulin, H3K9 and H3K27. Nature of the data set: Western blot of tubulin and histone H3 hyperacetylation in 4T1 cells. The format is cell-based, mouse. As to conditions: hybrids 10 μM, SAHA 100 nM, 6 h. How it is done:
The potential for compounds as HDACi’s can be rapidly tested in cells in culture by monitoring the hyperacetylation of histone H3 and tubulin. H3 acetylation is controlled by multiple class I enzymes, and the class IIb enzyme HDAC6 regulates tubulin acetylation.[36]−[39] […] (Figure 4A).
Figure 4 Evidence for HDAC inhibition in 4T1 and 4TO7 TNBC cells. Western blots and quantification of triplicate biological replicates analyzing the effects of 1,25D (100 nM), SAHA (100 nM), and hybrids (10 μM) on hyperacetylation of tubulin (A,D), H3K9 (B,E), and H3K27 (C,F) in 4T1 (A–C) and 4TO7 cells (D–F).
After 6 h treatments, 4T1, 4T07, or B16-F10 cells were solubilized in lysis buffer (20 mM Tris, pH 8, 150 mM NaCl, 1% Triton X-100, 3.5 mM SDS, and 13 mM deoxycholic acid), and proteins were separated on a 4–15% Tris/glycine/SDS gel (Bio-Rad). Then, the proteins were transferred to a nitrocellulose membrane, followed by blocking in 5% skim milk in Tris-buffered saline (TBS, 1×) solution. After blocking, the membranes were incubated overnight at 4 °C with the primary antibodies against acetylated tubulin (Sigma-Aldrich—#T7451), tubulin (Sigma-Aldrich—#T9026), acetyl-histone H3(Lys9) (Merck Millipore—#07-352), acetyl-histone H3 (Lys27) (Abcam—#ab4729), total histone H3 (Cell Signaling Technology (CST)—#3638), and GAPDH (Abcam—#ab8245). Then, the membranes were incubated with antimouse (CST—#7076) or antirabbit (CST—#7074) IgG HRP-linked secondary antibodies at recommended concentrations. Finally, signals were detected using Clarity ECL substrates (Bio-Rad) and a ChemiDoc Imaging System. Changes in protein levels were quantified relative to control using Image Lab software (version 6.0.1) after normalization to GAPDH. Western blot experiments were carried out three times.
A general note: Immunoblotting shows a protein as a band on a membrane.

The subject of data set [2] is 4T1 tumors. In words: 4T1 TNBC model in vivo (primary tumor and lung metastases). Details: species or system mouse. As to conditions: 4T1 model; for #Surface metastases (lung): 1,25D 0.25 μg/kg, SAHA 80 mg/kg, AM-193 0.2 mg/kg, ZG-126 high 5.0 mg/kg, vehicle 166. Here is the method:
As 4T1 cells are aggressively metastatic, we can also assess the antimetastatic activity in the same experiment. All treatments were well tolerated, and, as in the B16-F10 model, none induced weight loss or other signs of stress over the course of the experiment (Figure 7A). Treatments reduced the primary tumor burden to varying degrees.
The antimetastatic activity was determined by counting the number of surface lung metastases of duplicate samples using a stereomicroscope. […] This degree of efficacy is remarkable, as in previous experiments, DK-406 reduced the metastatic burden by ∼2-fold.[30]
(§1) Finally, mice were sacrificed, and lungs of 4T1-bearing mice were removed to evaluate the efficiency of treatments on lung metastases.

Another data set in a line: in vivo. As to conditions: BALB/c, mouse, ip.
In data set [3] the test system is 4T1 cells. In words: RealTime-Glo cell viability assay, 4T1 cells. As to conditions: for pIC50: Mus musculus, 4T1, 24 h, read-out: IC50 (cytotoxicity).
The next data set can be described thus: Solubility. It is filed as physicochemical.
For a further data set, the target named is T1, VDR (Mus musculus, UniProt P48281).
T1 sequence (P48281 1-422): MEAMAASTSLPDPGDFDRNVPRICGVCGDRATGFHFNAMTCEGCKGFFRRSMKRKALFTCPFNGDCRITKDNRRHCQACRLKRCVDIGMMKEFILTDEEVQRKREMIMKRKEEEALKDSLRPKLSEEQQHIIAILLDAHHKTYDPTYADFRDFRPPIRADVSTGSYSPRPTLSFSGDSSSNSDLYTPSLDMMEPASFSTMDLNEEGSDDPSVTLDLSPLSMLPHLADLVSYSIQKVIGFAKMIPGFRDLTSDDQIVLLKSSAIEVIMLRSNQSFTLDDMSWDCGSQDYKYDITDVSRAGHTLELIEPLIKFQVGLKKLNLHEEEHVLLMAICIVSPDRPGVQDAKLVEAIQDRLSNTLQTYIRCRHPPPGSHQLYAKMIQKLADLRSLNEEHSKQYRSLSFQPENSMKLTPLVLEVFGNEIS
Nature of the data set: Cyp24a1 gene induction (VDR agonism) in 4T1 cells. The format is cell-based. More on the design: endogenous in cells. As to conditions: Figure 2A. How it is done:
We first examined the effect of the modified structures on solubility. […] The bifunctionality of ZG compounds was then analyzed in a battery of assays. VDR agonism was determined by evaluating the induction of the Cyp24a1 gene. Cyp24a1 encodes the enzyme that initiates the catabolic degradation of 1,25D in a negative-feedback loop, and its gene transcription is exquisitely sensitive to the presence of the agonist-bound VDR. Agonism was assessed initially in mouse 4T1 cells and in related 4TO7 TNBC cells (Figure 2A,B). […] Apparent potencies were lower than those of DK-406 and AM-193.
RNA extraction was performed with the FavorPrep tissue total RNA mini kit (FAVORGEN Biotech Corporation FATRK 001) as per manufacturer’s instructions. cDNA was obtained from 1 μg of RNA using 5× All-in-One RT MasterMix (Applied Biological Materials (abm) Inc. G485) and diluted 5 times. qPCR was performed with BrightGreen 2× q-PCR MasterMix (abm MasterMix-LR-XL) on a Roche LightCycler 96 system. Expression of targeted genes was normalized to 18 s.

The test system of data set [4] is macrophage infiltration into 4T1 tumors. In words: Immunofluorescence of macrophages in 4T1 tumors (F4/80, Arg1). The format is in vivo, mouse. As to conditions: Figure 8B. Here is the method: Inhibition of PD-L1 and CD80/CD86 is directly achieved through the immune checkpoint blockade of their receptors using anti-CTLA-4 and anti-PD-1 antibodies.[69],[70]
Primary tumor tissues were fixed using 4% paraformaldehyde and subsequently dehydrated in sucrose solutions ranging from 10 to 30% for approximately 24 h each. The tissues were then embedded in base molds (Fisherbrand—#22363553) containing an optimal cutting temperature (OCT) compound (Fisher Healthcare—#4585). The tissue blocks were placed immediately on dry ice until the OCT compound solidified, and then they were stored at −80 °C. Prior to IF staining, sections of 5–10 μm were obtained using a Leica CM3050 S cryostat and SuperFrost Plus slides (Fisherbrand—#1255015). The tumor sections were then incubated with blocking buffer [phosphate-buffered saline containing 2% bovine serum albumin, 0.3% Triton X-100, 1% FBS, and 10% goat serum] for 1 h at RT. To detect macrophages in the TME, the sections were incubated with a pan-macrophage rat monoclonal antibody F4/80 (Abcam—#6640) diluted in blocking buffer overnight at 4 °C. Sixteen hours later, tissues were washed 3 times with 100 mM Tris–HCl and then incubated with a secondary goat antirat antibody (Invitrogen—#A11081) for 1 h at RT. […] Subsequently, 4′,6-diamidino-2-phenylindole (DAPI; Invitrogen—#D3571) was used to counterstain the nuclei for 5 min at RT. Finally, the slides were mounted using Fluoromount-G medium (Invitrogen—#00495802) and coverslips (Fisher Scientific—#12545E) and imaged with a Zeiss LSM 710 confocal microscope with ×20 objective. Quantification was carried out by QuPath software (version 0.3.2). F4/80+ macrophages and F4/80+ Arg1+ M2 macrophages were classified based on their fluorescence signal.

In data set [5] the test system is 4T1 cells. In words: Cytokine and chemokine gene expression in 4T1 cells in vitro. The format is cell-based, mouse. As to conditions: Figure 8A.
A further data set relates to B16-F10 tumors. Nature of the data set: B16-F10 melanoma model in vivo. Details: species or system mouse. As to conditions: C57BL/6 mice; ZG-126 5 mg/kg, AM-193 0.2 mg/kg, 1,25D 0.25 μg/kg, SAHA 80 mg/kg, gemcitabine 50 mg/kg. How it is done:
We were then interested in comparing the efficacy of ZG compounds and other hybrids in tumor models in vivo. We focused initially on the B16-F10 melanoma which is syngeneic with C57BL/6 mice. The efficacy of ZG-126 in vivo in this model was tested in two experiments. […] In a second experiment, we compared the antitumor efficacy of hybrids at ∼0.5 MTD doses. […] All treatments were well tolerated, and body weights were unaffected (Figure 6C).
as §1

The subject of data set [6] is hyperacetylation of tubulin, H3K9 and H3K27. Nature of the data set: Western blot of tubulin and histone H3 hyperacetylation in B16-F10 cells. As to conditions: SAHA 100 nM. It is filed as cell-based, mouse. The source says:
B16-F10 cells are responsive to 1,25D analogues[45] and HDACi[46],[47] and are therefore widely used in preclinical studies of melanoma solid tumor growth and metastases.[48] Although curable when treated early, melanoma is fatal when invasive. The American Cancer Society projected 97,610 new invasive melanoma cases in the US in 2023 and 7990 deaths. Current treatment options include chemotherapy, surgery, immunotherapy, or single agents targeting mutated genes such as B-RAF or C-KIT.[49]
After 6 h treatments, 4T1, 4T07, or B16-F10 cells were solubilized in lysis buffer (20 mM Tris, pH 8, 150 mM NaCl, 1% Triton X-100, 3.5 mM SDS, and 13 mM deoxycholic acid), and proteins were separated on a 4–15% Tris/glycine/SDS gel (Bio-Rad). Then, the proteins were transferred to a nitrocellulose membrane, followed by blocking in 5% skim milk in Tris-buffered saline (TBS, 1×) solution. […] Finally, signals were detected using Clarity ECL substrates (Bio-Rad) and a ChemiDoc Imaging System. Changes in protein levels were quantified relative to control using Image Lab software (version 6.0.1) after normalization to GAPDH. […]
Figure S2. […] Quantification of the analyses of hyperacetylation in B16-F10 cells of tubulin, H3K9 and H3K27. […]

The test system of data set [7] is 4T1 tumors. More on the design: method as in PMID 1540948. As to conditions: 4T1 model, previous experiments ref 30; cited from earlier work.

pIC50: −log10 of the molar value. Values after ≈ are worked out from the molar mass of the structure shown.

On to `CCC(CC)(c1ccc(OCCCCCC(=O)NO)cc1)c1ccc(OCC(O)C(C)(C)C)c(C)n1` (centres unmarked) [AM-193, reference compound], for which the pIC50 in the data set on MDA-MB-231 TNBC cells was 6.30; in the data set with 4T1 cells [3] it was 6.13. Besides, the tubulin acetylation result in data set [1] is “highly efficacious inducer of tubulin acetylation”. In addition, the “#Surface metastases (lung)” value in the data set with 4T1 tumors [2] was determined as 89. For the same compound, the “effect on primary tumor burden” value in the data set with 4T1 tumors [2] (AM-193 0.2 mg/kg compared with ZG-126 5 mg/kg) was “less efficacious than the high dose of ZG-126”. Moreover, in “in vivo”, the MTD is 0.5 mg/kg.

Regarding `CCC(CC)(c1ccc(C(=O)NCCCC(=O)NO)cc1)c1ccc(OCC(O)C(C)(C)C)c(C)n1` (centres unmarked) [ZG-132, 4-(3-(5-(2-Hydroxy-3,3-dimethylbutoxy)-6-methylpyridin-2-yl)pentan-3-yl)-N-(4-(hydroxyamino)-4-oxobutyl)benzamide], in “Solubility”, the solubility was found to be 10.71 µg/mL (≈ 21.4 µM). In addition, the pIC50 was 6.02 in the data set on MDA-MB-231 TNBC cells and 5.34 with 4T1 cells [3]. In “in vivo”, the MTD was 10 mg/kg. In addition, the Cyp24a1 induction result on VDR is “did not appear to be a full agonist”.

Turning to `C=C1/C(=C\C=C2/CCC[C@]3(C)[C@@H]([C@H](C)CCCC(C)(C)O)CC[C@@H]23)C[C@@H](O)C[C@@H]1O` [1,25D, 1,25-dihydroxyvitamin D], the cytotoxicity result with MDA-MB-231 TNBC cells is on record as “did not display significant cytotoxicity”. For the same compound, the “#Surface metastases (lung)” value in the data set with 4T1 tumors [2] amounted to 114. Besides, the “total macrophage infiltration into 4T1 tumors (F4/80 staining)” value in data set [4] is reported as “significantly reduced”. Besides, in the data set with 4T1 cells [5], the “expression of Ccl2, Ccl5, Ccl20, and Cxcl10” value is “inhibited”; the “expression of the gene encoding interleukin-1α” value is given as “induced”.

Turning to `Nc1ccn([C@@H]2O[C@H](CO)[C@@H](O)C2(F)F)c(=O)n1` [gemcitabine, reference compound], the B16-F10 tumor burden entry with B16-F10 tumors was “statistically significant reduction in tumor burden”.

Consider `CCC(CC)(c1ccc(C(=O)NCCCCCC(=O)NO)cc1)c1ccc(OCC(O)C(C)(C)C)c(C)c1` (centres unmarked) [DK-406, reference compound], for which the solubility in “Solubility” was determined as 4.40 µg/mL (≈ 8.35 µM). For the same compound, the pIC50 in the data set on MDA-MB-231 TNBC cells was 5.61; in the data set on 4T1 cells [3], 5.04. The “tubulin acetylation and histone hyperacetylation” value in data set [6] was “induced very high levels of tubulin acetylation and histone hyperacetylation”. Also, the “reduction of metastatic burden” value in the data set on 4T1 tumors [7] is about 2 fold. The compound also yielded an MTD in the data set “in vivo” of 1 mg/kg.

Take `O=C(CCCCCCC(=O)Nc1ccccc1)NO` [SAHA, reference compound]: the cytotoxicity result in the data set on MDA-MB-231 TNBC cells was “did not display significant cytotoxicity”; with 4T1 cells [3] (4T1 cells, 100 nM, alone or in combination), “did not display significant cytotoxicity”. In the data set with 4T1 tumors [2], the “#Surface metastases (lung)” value amounted to 139. Besides, the “total macrophage infiltration into 4T1 tumors (F4/80 staining)” value in [4] is recorded as “not”.

`CCC(CC)(c1ccc(C(=O)NCCCCCC(=O)NO)cc1)c1ccc(OCC(O)C(C)(C)C)c(C)n1` (centres unmarked) [ZG-102, 4-(3-(5-(2-Hydroxy-3,3-dimethylbutoxy)-6-methylpyridin-2-yl)pentan-3-yl)-N-(6-(hydroxyamino)-6-oxohexyl)benzamide]: the solubility in “Solubility” worked out at 4.45 µg/mL (≈ 8.43 µM). The pIC50 was 5.66 in the data set on MDA-MB-231 TNBC cells and 4.25 with 4T1 cells [3]. This compound had an MTD in “in vivo” of 10 mg/kg. Further, the Cyp24a1 induction entry at VDR is listed as “did not appear to be a full agonist”.

A word on the pIC50: it is the IC50 on a negative log10 scale, so that one unit is a factor of ten. In general, solubility refers to the concentration that dissolves in the medium under given conditions.
